Patent publication US20150004148A1, “METHODS AND COMPOSITIONS FOR INCREASING RNA INTERFERENCE” (DEVGEN N.V., priority 2008, published 2015)

What was measured:
Format in all cases: in vivo
[1] = tested on: Colorado potato beetle (Leptinotarsa decemlineata) larvae; assay: Colorado potato beetle (CPB) larvae bioassay on artificial diet, test solution applied topically to the diet
Method: The bioassay was typically performed in an 48-well-plate containing 500 μl of artificial diet per well. Thirty μl of test solution consisting of 5 μl Ld105 (SEQ ID NO 1) dsRNA (starting concentration 10 ng/μl) and 25 μl of dextran sulfate (of varying concentrations in Milli-Q water) was applied topically to the diet and the diet left to dry for about two hours in the laminar flow at room temperature. One 2nd stage CPB larva was placed in each well. Per treatment, 24 insects were tested. The plates were incubated in the insect rearing chamber at 25° C. and ±50% RH, with a photoperiod of 16 hours light/8 hours dark. Mortality was scored over the course of the experiment. The Kaplan-Meier estimator was used to plot the survival curves and the survival curves were compared using the logrank χ^2 test.
In a CPB bioassay (set-up described in Example 1), target Ld105 dsRNA (SEQ ID NO:1) was tested at one quantity (50 ng) in the presence of fucoidan (average Mw±20 kDa; Sigma cat. no. F5631) at different amounts ranging from 50 ng to 50 μg per larva.
In a CPB bioassay (set-up described in Example 1), target Ld105 dsRNA (SEQ ID NO:1) was tested at different amounts ranging from 1 pg to 1 μg in the presence of 50 μg dextran sulfate per larva.
In a CPB bioassay (set-up described in Example 1), target Ld105 dsRNA (SEQ ID NO:1) was tested at one quantity (50 ng) in the presence of heparin (MP Biomedicals cat. no. 194114) at different amounts ranging from 50 ng to 50 μg per larva.
In a CPB bioassay (set-up described in Example 1), target Ld105 dsRNA (SEQ ID NO:1) was tested at one quantity (50 ng per larva) in the presence of 50 μg chondroitin sulfate (Sigma cat. no. C3788) or hyaluronic acid (Sigma cat. no. 53747).
Preparation of the recombinant bacteria is described in the international publication WO 2007/080127 (see pages 55-56).
In one CPB bioassay (set-up described in Example 1), different target dsRNAs (SEQ ID NO:1, 2, 3, 4; Ld105 dsRNA=SEQ ID NO:1, Ld013=SEQ ID NO: 2, Ld009=SEQ ID NO: 3 and Ld248=SEQ ID NO: 4) were tested at one quantity (100 ng) in the presence of dextran sulfate (50 μg).

[2] = tested on: nematode Caenorhabditis elegans; assay: C. elegans soaking assay, counting of life stages; conditions: Example 13
Method: The effects of dextran sulfate on the RNAi-induced phenotypes of a non-insect species, namely, the nematode Caenorhabditis elegans, were tested in a soaking assay. Wild-type worms were chunked from a stock plate and adults were bleached to obtain a well-staged population. The assay was set up in a V-shaped 96-well plate, with each well containing 20 μl of solution comprising 50 ng/μl target rps-14 dsRNA (SEQ ID NO:6), various concentrations of dextran sulfate (0 mg/ml, 0.25 mg/ml, 0.50 mg/ml and 1 mg/ml) and 50 first-larval stage nematodes. Each treatment was performed in triplicate. The plate containing the worms was incubated at 25° C. for overnight soaking After 17 hours, the worms were transferred to 3.5 cm agar-plates seeded with OP50 E. coli and incubated at 20° C. for a further 2 days. After this growing period, the assay was assessed by counting the different life stages for all treatments.

[3] = tested on: Colorado potato beetle (Leptinotarsa decemlineata) larvae; assay: Alternative CPB bioassay using treated potato leaf discs; conditions: Example 10; 50 μg dextran sulfate alone on leaf discs
Method: An alternative bioassay was used using potato leaf discs rather than artificial diet as food source for CPB. Discs of approximately 0.9 cm in diameter (or 0.64 cm^2) were cut out off leaves of 4- to 6-week-old potato plants using a suitably sized cork borer. Treated leaf discs were prepared by applying 2 μl of a solution comprising 100 ng target Ld105 dsRNA (SEQ ID NO:1) and 50 μg dextran sulfate on the adaxial leaf surface. The leaf discs were allowed to dry and placed individually in 24 wells of a 48-well multiwell plate. A single second-larval stage CPB was placed into each well and the plate covered with a plastic lid. Twenty-four larvae were tested per treatment. […] After 24 hours, the larvae were transferred to fresh, untreated leaf discs and placed in the chamber for a further 24 hours. This was repeated once after which the CPB larvae were transferred on to artificial diet where they were kept until the end of the bioassay.

[4] = tested on: Colorado potato beetle (Leptinotarsa decemlineata) larvae; assay: CPB sequential feeding assay (priming with dextran sulfate, then dsRNA) on artificial diet; conditions: Example 11; DS/DS treatment, 50 μg dextran sulfate
Method: In one CPB bioassay, target Ld105 dsRNA (SEQ ID NO:1) was tested at one quantity (1 μg) following a short exposure to dextran sulfate only. The bioassay set-up was similar to that described in Example 1, except that the larvae were first fed diet with topically applied dextran sulfate (DS; 50 μg), or water, for two full days before transferring them to fresh diet with topically applied Ld105 dsRNA, dextran sulfate or water only, for the remainder of the assay.

[5] = 50 ng/μl rps-14 dsRNA, alone or plus 1 mg/ml dextran sulfate, 17 hours soaking, then 2 days growing
[6] = Example 6, heparin or dextran sulfate alone, no dsRNA

Q: How did the toxicity to larvae ([1]; Example 2, fucoidan alone, 50 ng to 50 μg per larva) turn out when fucoidan was run?
A: Very little or no toxicity

Q: With “rps-14 dsRNA: C. elegans target rps-14 double-stranded RNA, SEQ ID NO:6” as the substance, how does the “number of L3 stage larvae” value [2, 5] read?
A: 11%

Q: What about the “number of L4 stage larvae” value [2, 5] of the same substance?
A: 19%

Q: And the number of adults [2, 5]?
A: 63%

Q: What about the “number of dead larvae” value [2, 5] of the same substance?
A: 7%

Q: What does the source list for “dextran sulfate [dextran sulfate (±8 kDa)]”?
A: toxicity to larvae ([1]; Example 1, dextran sulfate (±8 kDa) alone, 50 ng to 50 μg per larva, no dsRNA): Very little or no toxicity; toxicity to larvae ([1]; Example 4, 50 μg dextran sulfate (±8 kDa) alone): Very little or no toxicity; toxicity to larvae [1, 6]: Very little or no toxicity; toxicity to larvae [3]: Very little toxicity; toxicity to larvae [4]: Very little or no toxicity; toxicity to nematodes ([2]; dextran sulfate alone (data not shown)): No toxicity

Q: How did the toxicity to larvae [1, 6] turn out when heparin [reference compound] was run?
A: Very little or no toxicity

Q: “dextran sulfate [dextran sulfate (±1400 kDa)]” was tested. Which toxicity to larvae ([1]; Example 5, dextran sulfate (±1400 kDa) alone, 50 ng to 50 μg per larva) did it give?
A: Very little or no toxicity
